Experimental data from patent US8999664B2, “Method of improving salmon meat color” (JX Nippon Oil & Energy Corporation, priority 2006, dated 2015).

What was measured:
[1] = Carotenoid content in fish flesh of king salmon by HPLC; assay type: in vivo, Oncorhynchus tshawytscha; settings: for Ratio to astaxanthin: king salmon fish flesh; for Ratio to astaxanthin / Content in fish flesh: 3 months; for Content in fish flesh / concentration at 3 months: king salmon, flesh frozen 1 month, average of 15 fish; for concentration at 3 months: king salmon (Oncorhynchus tshawytscha), oral
Experimental: In the examples, the quantification of the carotenoid colorant was performed using high performance liquid chromatography (HPLC). Two columns of Wakosil-II 5 SIL-100 φ4.6×250 mm (produced by Wako Pure Chemical Industries, Ltd.) were connected to each other. An n-hexane:tetrahydrofuran:methanol (40:20:1) mixed solution was used as a mobile phase. A constant room temperature and a flow rate of 1.0 ml/min were used. The detection was performed at a wavelength of 470 nm. The feed or fish flesh was milled, and then the colorant was extracted with a tetrahydrofuran:methanol (20:1) mixed solution. The colorant was appropriately diluted with the mobile phase and analyzed by HPLC. 100 king salmons (Oncorhynchus tshawytscha) each weighing about 200 g were cultivated as a test division of being fed with the above-described fermented product, and another 100 king salmons each weighing about 200 g were cultivated as a test division of being fed with the above-described synthetic product. The salmons were fed in satiation in a marine fish pen for 3 months. After the 3 months of cultivating, 15 fish of each test division were sampled and weighed. […] The fish were immediately killed by cutting medulla. […] After the measurement, the fish flesh was frozen for preservation for 1 month. After being thawed, the fish flesh of the fish of each test division was analyzed in terms of the content of each carotenoid compound.

[2] = Carotenoid content in fish flesh of rainbow trout by HPLC; assay type: in vivo, Oncorhynchus mykiss; settings: for Ratio to astaxanthin: rainbow trout fish flesh; for Ratio to astaxanthin / Content in fish flesh: 3 months; for Content in fish flesh / concentration at 3 months: rainbow trout, average of 12 fish; for concentration at 3 months: rainbow trout (Oncorhynchus mykiss), fish flesh, oral
Experimental: In the examples, the quantification of the carotenoid colorant was performed using high performance liquid chromatography (HPLC). Two columns of Wakosil-II 5 SIL-100 φ4.6×250 mm (produced by Wako Pure Chemical Industries, Ltd.) were connected to each other. An n-hexane:tetrahydrofuran:methanol (40:20:1) mixed solution was used as a mobile phase. A constant room temperature and a flow rate of 1.0 ml/min were used. The detection was performed at a wavelength of 470 nm. The feed or fish flesh was milled, and then the colorant was extracted with a tetrahydrofuran:methanol (20:1) mixed solution. The colorant was appropriately diluted with the mobile phase and analyzed by HPLC. 50 rainbow trouts (Oncorhynchus mykiss) each weighing about 100 g were cultivated in a water tank as a test division of being fed with the above-described fermented product, and another 50 rainbow trouts each weighing about 100 g were cultivated in a water tank as a test division of being fed with the above-described synthetic product. The trouts of each test division were fed in satiation in fresh water for 3 months. After the 3 months of cultivating, 12 fish of each test division were weighed. […] The fish were immediately killed by cutting medulla. […] After the measurement, the fish flesh was frozen for preservation. After being thawed, the fish flesh of the 12 fish of each test division was analyzed in terms of the content of each carotenoid compound.

[3] = Carotenoid content in fish flesh of Atlantic salmon by HPLC; assay type: in vivo, Salmo salar; settings: for Ratio to astaxanthin: Atlantic salmon fish flesh; for Ratio to astaxanthin / Content in fish flesh: 12 months; for Content in fish flesh / concentration at 12 months: Atlantic salmon, flesh frozen 1 month, average of 20 fish; for concentration at 12 months: Atlantic salmon (Salmo salar), oral
Experimental: In the examples, the quantification of the carotenoid colorant was performed using high performance liquid chromatography (HPLC). Two columns of Wakosil-II 5 SIL-100 φ4.6×250 mm (produced by Wako Pure Chemical Industries, Ltd.) were connected to each other. An n-hexane:tetrahydrofuran:methanol (40:20:1) mixed solution was used as a mobile phase. A constant room temperature and a flow rate of 1.0 ml/min were used. The detection was performed at a wavelength of 470 nm. The feed or fish flesh was milled, and then the colorant was extracted with a tetrahydrofuran:methanol (20:1) mixed solution. The colorant was appropriately diluted with the mobile phase and analyzed by HPLC. 400 Atlantic salmons (Salmo salar) each weighing about 300 g were cultivated as a test division of being fed with the above-described fermented product, and another 400 Atlantic salmons each weighing about 300 g were cultivated as a test division of being fed with the above-described synthetic product. The salmons were fed in satiation in a marine fish pen for 12 months. After the 12 months of cultivating, 20 fish of each test division were landed and weighed. […] The fish were immediately killed by cutting medulla, and the fish flesh was measured in terms of the color tone by a spectrometer. […] After the measurement, the fish flesh was frozen for preservation for 1 month. After being thawed, the fish flesh of the 20 fish of each test division was analyzed in terms of the content of each carotenoid compound.

[4] = Carotenoid content in fish flesh of silver salmon by HPLC; assay type: in vivo, Oncorhynchus kisutch; settings: for Ratio to astaxanthin: silver salmon fish flesh; for Ratio to astaxanthin / Content in fish flesh: 6 months; for Content in fish flesh / concentration at 6 months: silver salmon, average of 10 fish; for concentration at 6 months: silver salmon (Oncorhynchus kisutch), fish flesh, oral
Experimental: In the examples, the quantification of the carotenoid colorant was performed using high performance liquid chromatography (HPLC). Two columns of Wakosil-II 5 SIL-100 φ4.6×250 mm (produced by Wako Pure Chemical Industries, Ltd.) were connected to each other. An n-hexane:tetrahydrofuran:methanol (40:20:1) mixed solution was used as a mobile phase. A constant room temperature and a flow rate of 1.0 ml/min were used. The detection was performed at a wavelength of 470 nm. The feed or fish flesh was milled, and then the colorant was extracted with a tetrahydrofuran:methanol (20:1) mixed solution. The colorant was appropriately diluted with the mobile phase and analyzed by HPLC. 300 silver salmons (Oncorhynchus kisutch) each weighing about 200 g were cultivated as a test division of being fed with the above-described fermented product, and another 300 silver salmons each weighing about 200 g were cultivated as a test division of being fed with the above-described synthetic product. The salmons were fed in satiation in a marine fish pen for 6 months. After the 6 months of cultivating, 10 fish of each test division were weighed. […] The fish were immediately killed by cutting medulla and frozen for preservation. After being thawed, the fish flesh was milled by a coffee mill, and a part thereof was put into a polyethylene bag to measure the color tone thereof by a spectrometer CM-508i (Minolta). […] From a part of the milled fish flesh, the carotenoid colorant was extracted, and analyzed in terms of the content of each carotenoid compound by HPLC.

Compound | Ratio to astaxanthin ([1]; Fermented product division) | Content in fish flesh ([1]; Fermented product division) | Content in fish flesh ([1]; Synthetic product division) | Ratio to astaxanthin ([2]; Fermented product division) | Content in fish flesh ([2]; Fermented product division) | Content in fish flesh ([2]; Synthetic product division) | Ratio to astaxanthin ([3]; Fermented product division) | Content in fish flesh ([3]; Fermented product division) | Content in fish flesh ([3]; Synthetic product division) | Ratio to astaxanthin ([4]; Fermented product division) | Content in fish flesh ([4]; Fermented product division) | Content in fish flesh ([4]; Synthetic product division) | concentration at 3 months ([1]; 70.3 mg/kg feed, Synthetic product division) | concentration at 3 months ([1]; 72.7 mg/kg feed, Fermented product division) | concentration at 3 months ([2]; 63.2 mg/kg feed, Fermented product division) | concentration at 3 months ([2]; 64.6 mg/kg feed, Synthetic product division) | concentration at 12 months ([3]; 79.8 mg/kg feed, Fermented product division) | concentration at 12 months ([3]; 81.6 mg/kg feed, Synthetic product division) | concentration at 6 months ([4]; 43.2 mg/kg feed, Fermented product division) | concentration at 6 months ([4]; 44.3 mg/kg feed, Synthetic product division)
CC1=C(/C=C/C(C)=C/C=C/C(C)=C/C=C/C=C(C)/C=C/C=C(C)/C=C/C2=C(C)C(=O)[C@@H](O)CC2(C)C)C(C)(C)CCC1 [3-hydroxyequinenone] | 0.5 or less % | 0.02 or less mg/kg | 0.02 or less mg/kg | 0.6 or less % | 0.02 or less mg/kg | 0.02 or less mg/kg | 0.5 or less % | 0.02 or less mg/kg | 0.02 or less mg/kg | 0.2 or less % | 0.02 or less mg/kg | 0.02 or less mg/kg | – | – | – | – | – | – | – | –
CC1=C(/C=C/C(C)=C/C=C/C(C)=C/C=C/C=C(C)/C=C/C=C(C)/C=C/C2=C(C)C(=O)[C@@H](O)CC2(C)C)C(C)(C)C[C@H](O)C1 [Adonixanthin] | 6.5% | 0.3 mg/kg | 0.02 or less mg/kg | 2.9% | 0.1 mg/kg | 0.02 or less mg/kg | 4.9% | 0.2 mg/kg | 0.02 or less mg/kg | 23.1% | 2.4 mg/kg | 0.02 or less mg/kg | – | – | – | – | – | – | – | –
CC1=C(/C=C/C(C)=C/C=C/C(C)=C/C=C/C=C(C)/C=C/C=C(C)/C=C/C2=C(C)C(=O)[C@@H](O)CC2(C)C)C(C)(C)C[C@H](O)C1=O [Astaxanthin] | 100% | – | – | 100% | – | – | 100% | – | – | 100% | – | – | 7200 ng/g | 4600 ng/g | 3400 ng/g | 6300 ng/g | 4100 ng/g | 6200 ng/g | 10400 ng/g | 12700 ng/g
CC1=C(/C=C/C(C)=C/C=C/C(C)=C/C=C/C=C(C)/C=C/C=C(C)/C=C/C2=C(C)C(=O)CCC2(C)C)C(C)(C)CCC1=O [Canthaxanthin] | 6.5% | 0.3 mg/kg | 0.02 or less mg/kg | 11.8% | 0.4 mg/kg | 0.02 or less mg/kg | 9.8% | 0.4 mg/kg | 0.02 or less mg/kg | 1.0% | 0.1 mg/kg | 0.02 or less mg/kg | – | – | – | – | – | – | – | –
CC1=C(/C=C/C(C)=C/C=C/C(C)=C/C=C/C=C(C)/C=C/C=C(C)/C=C/C2=C(C)C(=O)CCC2(C)C)C(C)(C)CCC1 [Equinenone] | 0.5 or less % | 0.02 or less mg/kg | 0.02 or less mg/kg | 0.6 or less % | 0.02 or less mg/kg | 0.02 or less mg/kg | 0.5 or less % | 0.02 or less mg/kg | 0.02 or less mg/kg | 0.2 or less % | 0.02 or less mg/kg | 0.02 or less mg/kg | – | – | – | – | – | – | – | –
CC1=C(/C=C/C(C)=C/C=C/C(C)=C/C=C/C=C(C)/C=C/C=C(C)/C=C/C2=C(C)C(=O)[C@@H](O)CC2(C)C)C(C)(C)CCC1=O [Phoenicoxanthin] | 45.7% | 2.1 mg/kg | 0.02 or less mg/kg | 67.6% | 2.3 mg/kg | 0.02 or less mg/kg | 41.5% | 1.7 mg/kg | 0.02 or less mg/kg | 11.5% | 1.2 mg/kg | 0.02 or less mg/kg | – | – | – | – | – | – | – | –
CC1=C(/C=C/C(C)=C/C=C/C(C)=C/C=C/C=C(C)/C=C/C=C(C)/C=C/C2=C(C)CCCC2(C)C)C(C)(C)CCC1 [β-carotin] | 0.5 or less % | 0.02 or less mg/kg | 0.02 or less mg/kg | 0.6 or less % | 0.02 or less mg/kg | 0.02 or less mg/kg | 0.5 or less % | 0.02 or less mg/kg | 0.02 or less mg/kg | 0.2 or less % | 0.02 or less mg/kg | 0.02 or less mg/kg | – | – | – | – | – | – | – | –
Asteroidenone | 2.2% | 0.1 mg/kg | 0.02 or less mg/kg | 2.9% | 0.1 mg/kg | 0.02 or less mg/kg | 2.4% | 0.1 mg/kg | 0.02 or less mg/kg | 1.9% | 0.2 mg/kg | 0.02 or less mg/kg | – | – | – | – | – | – | – | –
